Assay results: publication PMC12123601, “Light-Induced, Lysine-Targeting Irreversible Covalent Inhibition of the Human Oxygen Sensing Hydroxylase Factor Inhibiting HIF (FIH)” (Journal of the American Chemical Society, 2025)
“And” between values parts separate entries of the source, which are not always exact repeats. Equal values may be shown once.

Assays:
Hep3B cells = assay: Whole-genome RNA sequencing of treated Hep3B cells; assay type: cell-based; details: replicates B1, B2
Description: To confirm whether the effects of NBA-ZG-2291 on gene expression are FIH-dependent, we knocked down FIH using siRNA and compared the impact of NBA-ZG-2291 treatment and FIH knockdown (siFIH) on gene expression in Hep3B cells. Whole-genome expression profiling analysis was conducted in NBA-ZG-2291-treated Hep3B cells and FIH knockdown Hep3B cells, with DMSO-treated Hep3B cells serving as controls.

FIH = FIH (Homo sapiens, UniProt Q9NWT6); assay: Time-dependent cellular thermal shift assay (CETSA) in Hep3B cells, FIH; assay type: cell-based; parameters: endogenous in cells; host or cells: Hep3B (SCSP-5045); details: for ΔTm at 50 µM: Hep3B
Chain of FIH (Q9NWT6 whole entry): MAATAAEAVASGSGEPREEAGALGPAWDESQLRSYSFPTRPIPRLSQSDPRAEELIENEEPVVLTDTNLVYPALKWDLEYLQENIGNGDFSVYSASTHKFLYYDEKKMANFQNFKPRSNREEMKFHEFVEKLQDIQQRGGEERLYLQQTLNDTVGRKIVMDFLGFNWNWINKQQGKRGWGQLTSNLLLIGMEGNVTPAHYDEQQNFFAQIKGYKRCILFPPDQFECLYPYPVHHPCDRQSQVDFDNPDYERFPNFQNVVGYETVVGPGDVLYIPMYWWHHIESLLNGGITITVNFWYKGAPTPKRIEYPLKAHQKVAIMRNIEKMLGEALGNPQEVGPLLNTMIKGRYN
Description: To investigate potential cellular target engagement of NBA-ZG-2291 with FIH, we performed a time-dependent cellular thermal shift assay (CETSA) using Hep3B cells. The results imply that, after 30 min of light activation (365 nm, 16 W), NBA-ZG-2291 effectively stabilizes FIH with a ΔT m of about 9 °C after incubation for 12–48 h (Figure A), indicating sustained engagement with FIH. […] We also performed Western blotting to examine the protein levels of both HIF-1α and HIF-2α in control and NBA-ZG-2291-treated Hep3B cells.
5 NBA-ZG-2991 sustainably engages with FIH and regulates the expression of FIH-dependent HIF target gene EGLN3 in Hep3B cells. (A) The CETSA assay was carried out with Hep3B cells grown in the presence of NBA-ZG-2291 (50 μM) for 12–48 h after 30 min of light activation (365 nm, 16 W). The intensity of the bands for grayscale analysis was referenced to the starting temperature (37 °C). α-Actinin was the sample loading control. n = 2; mean ± SD. […] (E) Correlation heatmap of the NBA-ZG-2291-treated group and the siFIH group by RNA-sequencing analysis. […] The relative fold change with respect to DMSO treated sample is shown (with normalization to HPRT gene levels). Mean ± SEM; n = 3. (G) TG level of NBA-ZG-2291-treated 3T3-L1-derived adipocytes. Mean ± SEM; n = 3. (H) Representative Oil Red O-stained images of the control, ZG-2291-treated, and NBA-ZG-2291-treated 3T3-L1-derived adipocytes. Scale Bar, 30 μm. P values were analyzed by two-way ANOVA comparing with the vehicle/control group (*, P < 0.05; **, P < 0.01; ***, P < 0.001, ****, P < 0.0001). See Methods (Quantitative PCR Analysis of Gene Expression) for assay details. […]
Data acquisition was carried out in Full MS mode, positive ion detection, the acquisition time was 10 min, and the scanning range of the mass-to-charge ratio was 400-2000 m/z.
3.5 Dihedral angle scan analysis
Dihedral angle scans were performed using the Gaussion 16 suite11. The original dihedral angles of the isoxazol-5-yl pyridine fragment were set to 0° via Gaussian View 6.0.16 for dihedral scanning from 0° to 360° in 1° increments at the B3LPY-D3(BJ)/6-31+G(d) level of theory. The resulting 360 conformations and the single-point energy for each conformation were extracted.
3.6 Molecular dynamics (MD) simulations
The process of customizing non-standard residues (NBA-ZG-2291 modified Lys106) in the amber14sb force field involved the following steps: First, the molecular structure of NBA-ZG-2291 was obtained and its topology was generated. […]
The RESP charges were fitted using Multiwfn, wherein the optimized structure and ESP data were inputted to perform the restrained electrostatic potential fitting. The obtained RESP charges were subsequently incorporated into the gaff topology generated by Multwfn. […]

## O=C(O)CNC(=O)c1ncc(-c2cc(-c3ccc(CO)c([N+](=O)[O-])c3)no2)cc1O [NBA-ZG-2291]
Hep3B cells
  DPM1 expression (whole-genome RNA sequencing): 3.9965 and 3.239
  SCYL3 expression (whole-genome RNA sequencing): 0.949 and 1.202
  TNMD expression (whole-genome RNA sequencing): 0
  TSPAN6 expression (whole-genome RNA sequencing): 7.032 and 6.946
FIH; incubation 12 h after 30 min light activation (365 nm, 16 W)
  ΔTm at 50 µM: 8.87 °C
FIH; incubation 24 h after 30 min light activation (365 nm, 16 W)
  ΔTm at 50 µM: 9.28 °C
FIH; incubation 48 h after 30 min light activation (365 nm, 16 W)
  ΔTm at 50 µM: 8.86 °C
FIH; incubation for 12–48 h after 30 min light activation (365 nm, 16 W)
  FIH: ΔTm: about 9 °C
